Assay results reported in paper PMC3314985 (Neuromuscular Disorders, 2012).
Read-outs that look alike come from different tables or passages of the source. Each block holds one molecule with its values, some of them ahead of it.

How the values were obtained:
pain threshold = settings: rat, oxaliplatin-induced neuropathic pain; cited from earlier work
hNav1.4 = settings: heterologously expressed; cited from earlier work
hNav1.7 = settings: heterologously expressed; cited from earlier work
[1] = system: skeletal muscle sodium channels (native Nav1.4); experiment: Tonic and use-dependent block of sodium currents; type: cell-based, Rana Esculenta; settings: for eudismic ratio [IC50 distomer/IC50 eutomer]: 10 Hz use-dependent block
[2] = system: skeletal muscle sodium channels (native Nav1.4); settings: use-dependent block at 10 Hz frequency; cited from earlier work
human serum albumin = settings: cited from earlier work

eudismic ratio [IC50 distomer/IC50 eutomer] [1]: 1.3
Compound: Cc1cccc(C)c1NC(=O)C1CCN(Cc2ccccc2)C1 (racemic) [To10, 1-benzyl-N-(2,6-dimethylphenyl)pyrrolidine-3-carboxamide]
reverting the reduction of the pain threshold (pain threshold): more potent than tocainide
use-dependent block of hNav1.4 (hNav1.4): potent use-dependent blocker
use-dependent block of hNav1.7 (hNav1.7): potent use-dependent blocker

eudismic ratio [IC50 distomer/IC50 eutomer] [1]: greater than 3
Compound: Cc1cccc(C)c1NC(=O)C1CCCN1Cc1ccccc1 (racemic) [To11, 1-benzyl-N-(2,6-dimethylphenyl)pyrrolidine-2-carboxamide]

Compound: Cc1cccc(C)c1NC(=O)C1CCCN1 (stereo not drawn) [To5, N-(2,6-dimethylphenyl)pyrrolidine-2-carboxamide]
eudismic ratio [IC50 distomer/IC50 eutomer] [2]: > 3

Compound: O=C(Nc1ccccc1)C1CCN(Cc2ccccc2)C1 (stereo not drawn) [To13, 1-benzyl-N-phenylpyrrolidine-3-carboxamide]
fold less potent than To10 during use-dependent blockade [1]: 4–5 fold

Compound: O=C(Nc1ccc(Cl)cc1)C1CCN(Cc2ccccc2)C1 (stereo not drawn) [To14, 1-benzyl-N-(4-chlorophenyl)pyrrolidine-3-carboxamide]
fold less potent than To10 during use-dependent blockade [1]: 4–5 fold

Compound: Cc1cc(C)c(C)c(NC(=O)C2CCN(Cc3ccccc3)C2)c1C (stereo not drawn) [To15, 1-benzyl-N-(2,3,5,6-tetramethylphenyl)pyrrolidine-3-carboxamide]
binding activity to human serum albumin (human serum albumin): high binding activity

Compound: Cc1cccc(C)c1NC(=O)C1CN(Cc2ccccc2)CCN1 (stereo not drawn) [To32, 4-benzyl-N-(2,6-dimethylphenyl)piperazine-2-carboxamide]
ratio IC50TB/IC50 UDB ([1]; tonic block vs use-dependent block): around 12

Compound: Cc1cccc(C)c1NC(=O)C1CCCCN1Cc1ccccc1 (stereo not drawn) [To35, 1-benzyl-N-(2,6-dimethylphenyl)piperidine-2-carboxamide]
fold less potent than To31 in tonic block ([1]; tonic block): 4 fold
fold less potent than To31 in use-dependent block ([1]; use-dependent block): 8 fold
